Measurements as given in patent publication US7888329B2, “Substituted aryl piperidinylalkynyladenosines as A2AR agonists” (PGxHealth, LLC, priority 2006, dated 2011).
Read-outs that look alike come from different tables or passages of the source.

Assays:
[1] = target: T1, human A1 AR (Homo sapiens, UniProt P30542); experiment: Radioligand competition binding with 125I-ABA, membranes of CHO K1 cells stably expressing the receptor; conditions: Ki derived from IC50, class symbols
T1 construct: expressed in transfected cells; membranes
T1 sequence (P30542 1-326): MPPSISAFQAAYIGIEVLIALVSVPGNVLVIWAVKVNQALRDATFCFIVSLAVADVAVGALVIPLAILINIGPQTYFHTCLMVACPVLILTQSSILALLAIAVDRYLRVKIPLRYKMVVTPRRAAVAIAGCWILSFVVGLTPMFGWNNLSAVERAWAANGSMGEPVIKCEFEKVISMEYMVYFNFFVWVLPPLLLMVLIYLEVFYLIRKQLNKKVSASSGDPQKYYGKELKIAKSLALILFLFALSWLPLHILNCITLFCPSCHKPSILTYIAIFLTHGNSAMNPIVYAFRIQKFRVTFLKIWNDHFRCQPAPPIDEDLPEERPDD

[2] = target: T2, human A3 AR (Homo sapiens, UniProt P0DMS8); experiment: Radioligand competition binding with 125I-ABA, membranes of HEK 293 cells stably expressing the receptor; conditions: Ki derived from IC50, class symbols
T2 construct: expressed in transfected cells; membranes
T2 sequence (P0DMS8 1-318): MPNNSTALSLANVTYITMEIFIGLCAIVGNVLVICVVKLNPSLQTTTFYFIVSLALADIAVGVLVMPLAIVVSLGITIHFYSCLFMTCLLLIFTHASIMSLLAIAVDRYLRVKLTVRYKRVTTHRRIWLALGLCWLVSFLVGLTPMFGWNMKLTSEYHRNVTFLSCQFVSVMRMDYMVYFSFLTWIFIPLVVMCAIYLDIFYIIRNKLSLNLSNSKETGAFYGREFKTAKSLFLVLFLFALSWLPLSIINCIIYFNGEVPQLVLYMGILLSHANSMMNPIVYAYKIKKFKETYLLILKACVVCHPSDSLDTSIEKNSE
Outline: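 Triplicate binding with 25 μg membrane protein and 0.5-1 nM agonist radioligand in HE buffer with 1 U/mL adenosine deaminase and 5 mM MgCl2, ±50 μM GTPγS, 3 h at room temperature, then filtration. Nonspecific binding with 50 μM NECA; Ki from IC50 corrected for radioligand and competitor depletion.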

[3] = tested on: Purified human neutrophils; experiment: Luminol enhanced chemiluminescence (neutrophil oxidative activity), fMLP stimulated; format: cell-based; conditions: read-out: Functional
[4] = target: T3, recombinant human A2A receptors (Homo sapiens, UniProt P29274); experiment: Radioligand competition binding with 125I-APE or 125I-ZM241385, Sf9 cell membranes; conditions: 125I-APE or 125I-ZM241385, Sf9 membranes; class symbols
T3 construct: expressed in transfected cells; host or cells: Sf9 insect cells infected with virus; membranes
T3 sequence (P29274 whole entry): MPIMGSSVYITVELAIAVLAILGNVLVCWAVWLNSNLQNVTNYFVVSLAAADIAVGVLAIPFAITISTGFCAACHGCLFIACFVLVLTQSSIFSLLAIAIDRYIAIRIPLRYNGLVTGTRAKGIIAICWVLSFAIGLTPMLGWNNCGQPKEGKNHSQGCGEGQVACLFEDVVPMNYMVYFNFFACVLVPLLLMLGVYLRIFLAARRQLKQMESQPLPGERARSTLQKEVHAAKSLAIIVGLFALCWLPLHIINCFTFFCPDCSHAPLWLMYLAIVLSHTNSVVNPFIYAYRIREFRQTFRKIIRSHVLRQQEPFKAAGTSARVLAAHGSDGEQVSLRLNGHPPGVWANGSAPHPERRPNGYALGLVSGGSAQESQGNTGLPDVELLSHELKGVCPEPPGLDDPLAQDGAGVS
Outline: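 Membranes (5 μg for A2A; 25 μg for A1) incubated with radioligand at room temperature, 3 h for agonists or 2 h for antagonists, in HE buffer with 1 U/mL adenosine deaminase and 5 mM MgCl2, ± 50 μM GTPγS. Assays ended by filtration; nonspecific binding defined with 50 μM NECA.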

[5] = EC50 of peak chemiluminescence, human PMN, rolipram 100 nM, fMLP, three donors, class symbols

Compound | Ki [1] | Ki [2] | EC50 ([3]; Homo sapiens, Neutrophil) | Ki [4] | EC50 [3, 5]
COC(=O)c1ccc(OC(=O)N2CCC(CC#Cc3nc(N)c4ncn([C@@H]5O[C@H](C(=O)NC6CC6)C(O)[C@@H]5O)c4n3)CC2)cc1 (stereo partly shown) [Compound 9, N-Cyclopropyl 2-{3-[1-(4-methoxycarbonylphenoxycarbanoyl)-4-piperidinyl]-1-propyn-1-yl}adenosine-5′-uronamide] | < 0.1 µM | < 0.1 µM | < 0.01 µM | < 0.001 µM | 
Nc1nc(C#CCC2CCN(C(=O)Oc3ccc(F)cc3)CC2)nc2c1ncn2[C@@H]1O[C@H](C(=O)NC2CC2)C(O)[C@@H]1O (stereo partly shown) [Compound 8, N-Cyclopropyl 2-{3-[1-(4-fluorophenoxycarbonyl)-4-piperidinyl]-1-propyn-1-yl}adenosine-5′-uronamide] | < 0.1 µM | < 0.1 µM | < 0.001 µM | < 0.001 µM | 
CCNC(=O)[C@H]1O[C@@H](n2cnc3c(N)nc(C#CCC4CCN(C(=O)Oc5ccc(Cl)c(Cl)c5)CC4)nc32)[C@@H](O)C1O (stereo partly shown) [Compound 49, N-Ethyl 2-{3-[1-(3,4-dichlorophenoxycarbonyl)-4-piperidinyl]-1-propyn-1-yl}adenosine-5′-uronamide] | < 0.1 µM | < 0.01 µM | < 0.001 µM | < 0.001 µM | 
Nc1nc(C#CCC2CCN(C(=O)Nc3cccc(Cl)c3)CC2)nc2c1ncn2[C@@H]1O[C@H](CO)C(O)[C@@H]1O (stereo partly shown) [Compound 46] | < 0.1 µM | < 0.1 µM | < 0.1 µM | < 0.01 µM | 
CCNC(=O)[C@H]1O[C@@H](n2cnc3c(N)nc(C#CCC4CCN(C(=O)OCc5ccc([N+](=O)[O-])cc5)CC4)nc32)[C@@H](O)C1O (stereo partly shown) [Compound 33, N-Ethyl 2-{3-[1-(4-nitrobenzyloxycarbonyl)-4-piperidinyl]-1-propyn-1-yl}adenosine-5′-uronamide] | < 0.1 µM | < 0.01 µM | < 0.01 µM | < 0.001 µM | 
COc1ccc(OC(=O)N2CCC(CC#Cc3nc(N)c4ncn([C@@H]5O[C@H](C(=O)NC6CC6)C(O)[C@@H]5O)c4n3)CC2)cc1 (stereo partly shown) [Compound 23] | < 0.1 µM | < 0.1 µM | < 0.001 µM | < 0.001 µM | 
CCNC(=O)[C@H]1O[C@@H](n2cnc3c(N)nc(C#CCC4CCN(C(=O)OCc5ccccc5)CC4)nc32)[C@@H](O)C1O (stereo partly shown) [Compound 32, N-Ethyl 2-{3-[1-(benzyloxycarbonyl)-4-piperidinyl]-1-propyn-1-yl}adenosine-5′-uronamide, reference compound] | > 0.1 µM | < 0.1 µM | < 0.01 µM | < 0.001 µM | 
N-Cyclopropyl 2-{3-[1-((4-amino)benzyloxycarbanoyl)-4-piperidinyl]propyn-1-yl}adenosine-5′-uronamide [Compound 48] | > 0.1 µM | > 0.1 µM |  | < 0.01 µM | < 0.01 µM
Nc1nc(C#CCC2CCN(C(=O)Nc3cccc(Cl)c3)CC2)nc2c1ncn2[C@@H]1O[C@H](C(=O)NC2CC2)C(O)[C@@H]1O (stereo partly shown) [Compound 43, N-Cyclopropyl 2-{3-[1-(3-chlorophenyloxycarboxymidyl)-4-piperidinyl]-1-propyn-1-yl}adenosine-5′-uronamide] | < 0.1 µM | > 0.1 µM | < 0.1 µM | < 0.01 µM | 
COc1ccccc1OC(=O)N1CCC(CC#Cc2nc(N)c3ncn([C@@H]4O[C@H](CO)[C@@H](O)[C@H]4O)c3n2)CC1 [Compound 36, 2-{3-[1-((2-Methoxy)phenoxycarbanoyl)piperidin-4-yl]propyn-1-yl}adenosine] | < 0.1 µM | < 0.1 µM | < 0.01 µM | < 0.001 µM | 
COc1ccc(OC(=O)N2CCC(CC#Cc3nc(N)c4ncn([C@@H]5O[C@H](CO)[C@@H](O)[C@H]5O)c4n3)CC2)cc1 [Compound 28, 2-{3-[1-((4-Methoxy)phenoxycarbanoyl)piperidin-4-yl]propyn-1-yl}adenosine] | < 0.1 µM | < 0.1 µM | < 0.01 µM | < 0.001 µM | 
Nc1nc(C#CCC2CCN(C(=O)Oc3ccc(F)cc3)CC2)nc2c1ncn2[C@@H]1O[C@H](CO)[C@@H](O)[C@H]1O [Compound 11, 2-{3-[1-((4-Fluorophenoxy)carbonyl)piperidin-4-yl]propyn-1-yl}adenosine] | < 0.1 µM | < 0.1 µM | < 0.01 µM | < 0.001 µM | 
Nc1nc(C#CCC2CCN(C(=O)OCCOCc3ccccc3)CC2)nc2c1ncn2[C@@H]1O[C@H](C(=O)NC2CC2)C(O)[C@@H]1O (stereo partly shown) [Compound 5, N-Cyclopropyl 2-{3-[1-(2-(benzyloxy)ethoxycarbonoyl)-4-piperidinyl]-1-propyn-1-yl}adenosine-5′-uronamide] | < 0.1 µM | < 0.1 µM | < 0.01 µM | < 0.001 µM | 
CCNC(=O)[C@H]1O[C@@H](n2cnc3c(N)nc(C#CCC4CCN(C(=O)Oc5ccc(F)cc5)CC4)nc32)[C@@H](O)C1O (stereo partly shown) [Compound 24, N-Ethyl 2-{3-[1-(4-fluorophenyloxycarbonyl)-4-piperidinyl]-1-propyn-1-yl}adenosine-5′-uronamide] | < 0.1 µM | < 0.01 µM | < 0.001 µM | < 0.001 µM | 
CCNC(=O)[C@H]1O[C@@H](n2cnc3c(N)nc(C#CCC4CCN(C(=O)Oc5ccccc5Cl)CC4)nc32)[C@@H](O)C1O (stereo partly shown) [Compound 31, N-Ethyl 2-{3-[1-(2-chlorophenyloxycarbonyl)-4-piperidinyl]-1-propyn-1-yl}adenosine-5′-uronamide] | < 0.1 µM | < 0.01 µM | < 0.01 µM | < 0.001 µM | 
Nc1nc(C#CCC2CCN(C(=O)Oc3ccc(Cl)c(Cl)c3)CC2)nc2c1ncn2[C@@H]1O[C@H](CO)C(O)[C@@H]1O (stereo partly shown) [Compound 55, 2-{3-[1-((3,4-Chloro)phenoxycarbanoyl)piperidin-4-yl]propyn-1-yl}adenosine] | < 0.1 µM | < 0.01 µM | < 0.01 µM | < 0.001 µM | 
Cc1ccc(OC(=O)N2CCC(CC#Cc3nc(N)c4ncn([C@@H]5O[C@H](CO)[C@@H](O)[C@H]5O)c4n3)CC2)cc1 [Compound 29, 2-{3-[1-((4-Methyl)phenoxycarbanoyl)piperidin-4-yl]propyn-1-yl}adenosine] | < 0.1 µM | < 0.1 µM | < 0.01 µM | < 0.001 µM | 
COc1ccccc1OC(=O)N1CCC(CC#Cc2nc(N)c3ncn([C@@H]4O[C@H](C(=O)NC5CC5)C(O)[C@@H]4O)c3n2)CC1 (stereo partly shown) [Compound 21, N-Cyclopropyl 2-{3-[1-(2-methoxyphenyloxycarbonyl)-4-piperidinyl]-1-propyn-1-yl}adenosine-5′-uronamide] | < 0.1 µM | < 0.1 µM | < 0.01 µM | < 0.001 µM | 
Nc1nc(C#CCC2CCN(C(=O)Oc3ccc(F)c(F)c3)CC2)nc2c1ncn2[C@@H]1O[C@H](C(=O)NC2CC2)C(O)[C@@H]1O (stereo partly shown) [Compound 52, N-Cyclopropyl 2-{3-[1-(3,4-fluorophenoxycarbonyl)-4-piperidinyl]-1-propyn-1-yl}adenosine-5′-uronamide] | < 0.1 µM | < 0.1 µM | < 0.001 µM | < 0.001 µM | 
N=C(Oc1ccc(Cl)cc1)N1CCC(CC#Cc2nc(N)c3ncn([C@@H]4O[C@H](C(=O)NC5CC5)[C@@H](O)[C@H]4O)c3n2)CC1 [Compound 42, N-Cyclopropyl 2-{3-[1-(4-chlorophenyloxycarboxymidyl)-4-piperidinyl]-1-propyn-1-yl}adenosine-5′-uronamide] | > 0.1 µM | > 0.1 µM |  | < 0.01 µM | > 0.1 µM
Nc1nc(C#CCC2CCN(C(=O)Oc3ccc(Cl)c(Cl)c3)CC2)nc2c1ncn2[C@@H]1O[C@H](C(=O)NC2CC2)C(O)[C@@H]1O (stereo partly shown) [Compound 51, N-Cyclopropyl 2-{3-[1-(3,4-chlorophenoxycarbonyl)-4-piperidinyl]-1-propyn-1-yl}adenosine-5′-uronamide] | < 0.1 µM | < 0.1 µM | < 0.001 µM | < 0.001 µM | 
Nc1nc(C#CCC2CCN(C(=O)Oc3ccc(Br)cc3Br)CC2)nc2c1ncn2[C@@H]1O[C@H](C(=O)NC2CC2)C(O)[C@@H]1O (stereo partly shown) [Compound 57, N-Cyclopropyl 2-{3-[1-(2,4-bromophenoxycarbonyl)-4-piperidinyl]-1-propyn-1-yl}adenosine-5′-uronamide] | < 0.1 µM | < 0.1 µM | < 0.01 µM | < 0.001 µM | 
